Molecules are shown by their SMILES. Activity calls are given as the source filed them. The rule behind the calls is not given here. Where a SMILES comes first, the peptide text is derived from it. The star is where a group is joined. Boc = CC(C)(C)OC(=O)*

For this experiment, the target named is DNA-directed RNA polymerase subunit beta (Escherichia coli (strain K12)) (UniProt P0A8V2). The experiment is described as follows: E. coli RNAP inhibitors, dose response, biochemical, confirmation (AID 826). Conditions: E. coli RNA polymerase biochemical transcription assay.
DNA-directed RNA polymerase subunit beta (Escherichia coli (strain K12)), sequence (P0A8V2 whole entry, looked up): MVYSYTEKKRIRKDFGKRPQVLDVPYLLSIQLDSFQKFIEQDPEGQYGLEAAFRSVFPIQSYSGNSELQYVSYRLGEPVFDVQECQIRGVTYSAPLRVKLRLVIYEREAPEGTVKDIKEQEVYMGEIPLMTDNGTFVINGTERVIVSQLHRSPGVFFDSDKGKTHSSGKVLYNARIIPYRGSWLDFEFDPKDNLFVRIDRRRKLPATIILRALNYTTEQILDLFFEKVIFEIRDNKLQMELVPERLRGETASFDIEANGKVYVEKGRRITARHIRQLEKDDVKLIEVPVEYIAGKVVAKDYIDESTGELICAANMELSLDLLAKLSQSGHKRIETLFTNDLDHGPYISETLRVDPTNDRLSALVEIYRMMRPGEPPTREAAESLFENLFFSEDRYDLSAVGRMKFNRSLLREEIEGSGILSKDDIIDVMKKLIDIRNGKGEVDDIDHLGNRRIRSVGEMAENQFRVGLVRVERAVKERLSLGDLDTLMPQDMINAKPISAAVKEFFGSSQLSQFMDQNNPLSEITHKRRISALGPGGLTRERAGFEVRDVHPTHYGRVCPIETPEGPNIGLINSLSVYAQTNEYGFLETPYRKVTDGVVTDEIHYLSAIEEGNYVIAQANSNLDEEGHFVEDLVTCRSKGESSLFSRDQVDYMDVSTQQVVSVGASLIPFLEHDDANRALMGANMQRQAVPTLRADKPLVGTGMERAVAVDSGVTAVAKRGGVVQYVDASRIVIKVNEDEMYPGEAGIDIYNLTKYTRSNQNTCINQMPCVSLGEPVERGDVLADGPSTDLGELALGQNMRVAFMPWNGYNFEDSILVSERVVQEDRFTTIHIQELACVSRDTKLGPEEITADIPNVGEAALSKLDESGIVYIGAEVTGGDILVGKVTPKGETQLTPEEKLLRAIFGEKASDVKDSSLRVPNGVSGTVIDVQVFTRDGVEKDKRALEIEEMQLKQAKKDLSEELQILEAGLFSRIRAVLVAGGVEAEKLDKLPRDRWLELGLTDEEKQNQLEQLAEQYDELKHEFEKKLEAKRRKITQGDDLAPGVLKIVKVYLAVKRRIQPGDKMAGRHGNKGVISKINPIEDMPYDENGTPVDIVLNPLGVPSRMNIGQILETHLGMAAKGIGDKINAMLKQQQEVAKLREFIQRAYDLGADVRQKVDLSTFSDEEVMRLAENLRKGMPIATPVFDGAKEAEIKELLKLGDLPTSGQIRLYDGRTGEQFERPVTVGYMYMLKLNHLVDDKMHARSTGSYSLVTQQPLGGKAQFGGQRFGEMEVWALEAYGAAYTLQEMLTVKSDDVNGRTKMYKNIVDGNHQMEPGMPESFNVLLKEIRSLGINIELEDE
The IC50 is the concentration that inhibits the measured activity by half. Turning to `CCCCn1c(O)c(C(CC)=NCCCN(C)C)c(=O)[nH]c1=O`, the IC50 is > 50 µM (inactive).
On to `O=C1N(O)C2(C=CCCC2)/C(=N\O)C12CCCCC2` (configuration not stated), for which the IC50 was > 50 µM (inactive).
To `CC(C)(C)OC(=O)N1CCCC1C(=O)N1CCCC1C(=O)N1CCCC1C(=O)O` (stereo not drawn) (Boc-Pro-Pro-Pro-OH; configuration not given here) belongs > 50 µM (inactive); to `COCCN1C(=O)C(O)=C(C(C)=O)C1c1ccc(OC)c(OC)c1` (configuration not stated), > 50 µM (inactive).
On to `COc1ccc(C2=NO[C@@H]3C(=O)N(c4c(C)cccc4C)C(=O)[C@H]23)cc1OC`, for which the IC50 was > 50 µM (inactive).
For `CC(=O)C1=C(C)Nc2cc(C(F)(F)F)ccc2S1` the value was > 50 µM (inactive); for `CCOC(=O)C1=C(c2ccccc2)OC(N)=C(C#N)C1C(C)C` (configuration not stated), > 50 µM (inactive).

Source of the values: PubChem BioAssay AID826 (PCMD, 2007).
